Measurements taken from publication PMC5614966, “Xanthates As Useful Probes for Testing the Active Sites of Cytochromes P450 4A11 and 2E1” (Frontiers in Pharmacology, 2017).

T1: CYP4A11 (Homo sapiens, UniProt Q02928)
T1 sequence (Q02928 5-519): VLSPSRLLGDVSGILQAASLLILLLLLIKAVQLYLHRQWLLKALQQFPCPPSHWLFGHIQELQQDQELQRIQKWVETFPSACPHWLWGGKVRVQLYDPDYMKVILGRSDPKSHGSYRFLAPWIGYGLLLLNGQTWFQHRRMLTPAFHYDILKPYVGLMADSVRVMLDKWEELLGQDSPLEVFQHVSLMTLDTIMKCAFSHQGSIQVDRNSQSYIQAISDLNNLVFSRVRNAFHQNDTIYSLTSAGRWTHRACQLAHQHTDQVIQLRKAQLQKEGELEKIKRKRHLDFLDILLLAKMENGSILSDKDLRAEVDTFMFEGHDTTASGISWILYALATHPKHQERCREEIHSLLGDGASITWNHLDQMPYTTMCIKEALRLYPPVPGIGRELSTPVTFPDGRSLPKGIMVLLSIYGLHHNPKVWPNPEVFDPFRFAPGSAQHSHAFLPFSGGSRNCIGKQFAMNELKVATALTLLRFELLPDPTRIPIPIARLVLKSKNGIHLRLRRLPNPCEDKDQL

B1: CYP4A11 (Homo sapiens) (protein)
chain: T1 sequence (Q02928 5-519)

Key:
CYP4A11 = target: T1, CYP4A11; test: inhibition of lauric acid omega-hydroxylation by CYP4A11 supersomes, HPLC-fluorescence, Lineweaver-Burk; type: biochemical
CYP2E1 = CYP2E1 (Oryctolagus cuniculus, UniProt P08682); test: time- and concentration-dependent (mechanism-based) inactivation of 7-EFC O-deethylation, KI with kinact […] min^-1; type: biochemical; settings: read-out: KI_inact
CYP2E1, sequence (P08682 whole entry): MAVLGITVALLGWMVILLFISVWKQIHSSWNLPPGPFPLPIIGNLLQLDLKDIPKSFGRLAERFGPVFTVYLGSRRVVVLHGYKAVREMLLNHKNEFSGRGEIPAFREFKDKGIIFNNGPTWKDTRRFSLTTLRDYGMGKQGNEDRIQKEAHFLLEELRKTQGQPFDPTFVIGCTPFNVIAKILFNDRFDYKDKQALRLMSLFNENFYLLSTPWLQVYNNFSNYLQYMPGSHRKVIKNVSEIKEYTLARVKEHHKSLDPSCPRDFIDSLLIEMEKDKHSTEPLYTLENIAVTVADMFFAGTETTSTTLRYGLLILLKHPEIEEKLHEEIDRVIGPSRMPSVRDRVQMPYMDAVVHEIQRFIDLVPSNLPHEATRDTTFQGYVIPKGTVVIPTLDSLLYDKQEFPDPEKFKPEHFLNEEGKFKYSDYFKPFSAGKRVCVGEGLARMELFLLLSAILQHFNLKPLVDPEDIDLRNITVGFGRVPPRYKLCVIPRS

[1] = substrate: CCCCCCCCCCCC(=O)O; test: Michaelis-Menten kinetics of omega-hydroxylation by CYP4A11 supersomes (Km); type: biochemical, Homo sapiens; settings: heme; NADPH

| Molecule | Ki (CYP4A11) [µM] | KI (inactivation) (CYP2E1) [µM] | Km [1] [µM] |
| --- | --- | --- | --- |
| CCCCCCCCCCCCOC(=S)S [C12, potassium O-dodecyl carbonodithioate] | 9 ± 1 | 312 | – |
| B1 | – | – | 11.8 |
